The text below walks through data of US20040067915A1, “Method to treat cardiofibrosis with a combination of an angiotensin II antagonist and spironolactone” (G.D. Searle & Co., priority 1995, published 2004).

The target in experiment [1] is angiotensin II AT1 receptor. Description: Assay A: Angiotensin II Binding Activity (125I-AII displacement, rat uterine membrane preparation). The protocol: Assay A: Antiotensin II Binding Activity
Compounds of the invention were tested for ability to bind to the smooth muscle angiotensin II receptor using a rat uterine membrane preparation. […] Rat uterine membranes were prepared from fresh tissue. All procedures were carried out at 4° C. Uteri were stripped of fat and homogenized in phosphate-buffered saline at pH 7.4 containing 5 mM EDTA. The homogenate was centrifuged at 1500×g for 20 min., and the supernatant was recentrifuged at 100,000×g for 60 min. The pellet was resuspended in buffer consisting of 2 mM EDTA and 50 mM Tris-HCl (pH 7.5) to a final protein concentration of 4 mg/ml. […] The reaction was initiates by the addition of membrane protein and the mixture was incubated at 25° C. for 60 min. The incubation was terminated with ice-cold 50 mM Tris-HCl (pH 7.5) and the mixture was filtered to separate membrane-bound labelled peptide from the free ligand. The incubation tube and filter were washed with ice-cold buffer. Filters were assayed for radioactivity in a Micromedic gamma counter. Nonspecific binding was defined as binding in the presence of 10 μM of unlabelled AII. Specific binding was calculated as total binding minus nonspecific binding. […] Binding data were analyzed by a nonlinear least-squares curve fitting program.
1Assay A: Angiotensin II Binding Activity

In experiment [2] the target is T1, angiotensin II receptor (rabbit aortic rings) (Oryctolagus cuniculus, UniProt P34976).
T1 construct: The thoracic aorta was removed, cleaned of adherent fat and connective tissue and then cut into 3-mm ring segments; from tissue; host or cells: rabbit thoracic aorta rings, endothelium removed
T1 sequence (P34976 1-359): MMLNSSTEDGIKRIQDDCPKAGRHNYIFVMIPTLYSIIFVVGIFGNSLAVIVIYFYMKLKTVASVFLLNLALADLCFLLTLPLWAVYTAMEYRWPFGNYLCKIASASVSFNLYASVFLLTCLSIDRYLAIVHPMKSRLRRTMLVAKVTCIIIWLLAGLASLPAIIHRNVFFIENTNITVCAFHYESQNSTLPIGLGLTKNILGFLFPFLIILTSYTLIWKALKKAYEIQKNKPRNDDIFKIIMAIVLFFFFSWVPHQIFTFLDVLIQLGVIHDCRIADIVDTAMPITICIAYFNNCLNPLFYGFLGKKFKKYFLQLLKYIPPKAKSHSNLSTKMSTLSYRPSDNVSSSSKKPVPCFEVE
The experiment is described as follows: Assay B: In vitro Vascular Smooth Muscle Response for AII (rabbit aortic rings, pA2). It is filed as cell-based. Further details: key to Assay B pA2 (NC = Non-Competitive antagonist): NC=Non-Competitive antagonist. The note with it: for Kb: two determinations given as a/b. The protocol: Assay B: In vitro Vascular Smooth Muscle-response for AII
The compounds of the invention were tested for antagonist activity in rabbit aortic rings. Male New Zealand white rabbits (2-2.5 kg) were sacrificed using an overdose of pentobarbital and exsanguinated via the carotid arteries. The thoracic aorta was removed, cleaned of adherent fat and connective tissue and then cut into 3-mm ring segments. The endothelium was removed from the rings by gently sliding a rolled-up piece of filter paper into the vessel lumen. The rings were then mounted in a water-jacketed tissue bath, maintained at 37° C., between moveable and fixed ends of a stainless steel wire with the moveable end attached to an FT03 Grass transducer coupled to a Model 7D Grass Polygraph for recording isometric force responses. […] The preparations were equilibrated for one hour before approximately one gram of passive tension was placed on the rings. Angiotensin II concentration-response curves were then recorded (3×10^−10 to 1×10^−5 M). Each concentration of AII was allowed to elicit its maximal contraction, and then AII was washed out repeatedly for 30 minutes before rechallenging with a higher concentration of AII. Aorta rings were exposed to the test antagonist at 10^−5 M for 5 minutes before challenging with AII. Adjacent segments of the same aorta ring were used for all concentration-response curves in the presence or absence of the test antagonist. The effectiveness of the test compound was expressed in terms of pA2 values and were calculated according to H. O. Schild [Br. J. Pharmacol. Chemother., 2, 189-206 (1947)]. The pA2 value is […] which increases the EC50 value for AII by a factor of two. Each test antagonist was evaluated in aorta rings from two rabbits.
2Assay B: In vitro Vascular Smooth Muscle Response

Experiment [3] deals with pressor response to AII. The experiment is described as follows: Assay C: In vivo Intragastric Pressor Assay Response for AII Antagonists. Conditions: rat; for inhibition at 3 mg/kg: po, AII pressor response. As for the experimental part:
Assay C: In vivo Intragastric Pressor Assay Response for All Antagonists
Male Sprague-Dawley rats weighing 225-300 grams were anesthetized with methohexital (30 mg/kg, i.p.) and catheters were implanted into the femoral artery and vein. The catheters were tunneled subcutaneously to exit dorsally, posterior to the head and between the scapulae. The catheters were filled with heparin (1000 units/ml of saline). The rats were returned to their cage and allowed regular rat chow and water ad libitum. After full recovery from surgery (3-4 days), rats were placed in Lucite holders and the arterial line was connected to a pressure transducer. Arterial pressure was recorded on a Gould polygraph (mmHg). Angiotensin II was administered as a 30 ng/kg bolus via the venous catheter delivered in a 50 μl volume with a 0.2 ml saline flush. The pressor response in mm Hg was measured by the difference from pre-injection arterial pressure to the maximum pressure achieved. The AII injection was repeated every 10 minutes until three consecutive injections yielded responses within 4 mmHg of each other. These three responses were then averaged and represented the control response to AII. The test compound was suspended in 0.5% methylcellulose in water and was administered by gavage. The volume administered was 2 ml/kg body weight. The standard dose was 3 mg/kg. Angiotensin II bolus injections were given at 30, 45, 60, 75, 120, 150, and 180 minutes after gavage. The pressor response to AII was measured at each time point. The rats were then returned to their cage for future testing. A minimum of 3 days was allowed between tests. Percent inhibition was calculated for each time point following gavage by the following formula: [(Control Response—Response at time point)/Control Response]×100.
3Assay C: In vivo Pressor Response

Experiment [4] relates to angiotensin II. The note with it: binding experiments, functional assays and in vivo tests; cited from earlier work.

In general, IC50 refers to the concentration that gives 50% inhibition. A word on the Kb: it is the equilibrium dissociation constant of an antagonist, usually derived from a functional assay. As to `CCCCc1nc(CCCC)n(Cc2ccc(-c3ccccc3-c3nnn[nH]3)cc2)n1` [Compound 3], the IC50 in experiment [1] was 5.4 nM. The same molecule had a Kb in experiment [2] of 2 nM. Besides, the “Assay C Duration” value is over 180 min in experiment [3] (dose 10 mg/kg) and 200^+ min in experiment [3] (dose 30 mg/kg).
The molecule `CCCCc1nc(CCCC)n(Cc2ccc(-c3ccccc3C(=O)NNS(=O)(=O)C(F)(F)F)cc2)n1` [Compound 5] registered an IC50 in experiment [1] of 200 nM. Further, the “Assay C Duration” value in experiment [3] (dose 30 mg/kg) was in the range of 20 to 30 min.
In turn, `CCCCc1nc(Cl)nn1Cc1ccc(-c2ccccc2C(=O)O)cc1` [Compound 6] yielded an IC50 in experiment [1] of 1300 nM. The “Assay C Duration” value in experiment [3] (dose 100 mg/kg) stood at 120 min.
`CCCCc1nc(Cl)nn1Cc1ccc(-c2ccccc2-c2nnn[nH]2)cc1` [Compound 7] came in with an IC50 in experiment [1] of 84 nM. Moreover, the “Assay C Duration” value in experiment [3] (dose 30 mg/kg) was 130 min.
Take `CCCCc1nc(Cl)n(Cc2ccc(-c3ccccc3C(=O)O)cc2)n1` [Compound 8]: the IC50 in experiment [1] came out at 17000 nM.
In experiment [1], `CCCCc1nc(Cl)n(Cc2ccc(-c3ccccc3-c3nnn[nH]3)cc2)n1` [Compound 9] yielded an IC50 of 700 nM. For the same molecule, the “Assay C Duration” value is 75 min in experiment [3] (dose 30 mg/kg) and 130 min in experiment [3] (dose 100 mg/kg).
In experiment [1], `CCCCc1nc(C(F)(F)CCC)nn1Cc1ccc(-c2ccccc2-c2nnn[nH]2)cc1` [Compound 10] came in with an IC50 of 4.9 nM. The entries for the “Assay C Duration” value in experiment [3] (dose 3 mg/kg) and in experiment [3] (dose 30 mg/kg) were 100 min and 240 min, respectively.
Molecule `CCCCc1nc(C(F)(F)CCC)n(Cc2ccc(-c3ccccc3-c3nnn[nH]3)cc2)n1` [Compound 11] registered an IC50 in experiment [1] of 160 nM.
The same measure, in the same setting: under `CCCc1nc(CCC)n(Cc2ccc(-c3ccccc3-c3nnn[nH]3)cc2)n1` [Compound 15] stands 16 nM; under `CCCc1nc(CCC(C)C)n(Cc2ccc(-c3ccccc3-c3nnn[nH]3)cc2)n1` [Compound 16], 6.4 nM.
`CCCCc1nc(-c2ccccc2)nn1Cc1ccc(-c2ccccc2-c2nnn[nH]2)cc1` [Compound 21] registered an IC50 in experiment [1] of 7 nM.
Take `CCCCc1nc2c(OCC)nnc(OCC)c2n1Cc1ccc(-c2ccccc2-c2nnn[nH]2)cc1` [Compound 112]: in experiment [2], the Kb was 6310 nM.
The same measure, in the same setting: under `CCCCc1nc2c(CCC)nnc(O)c2n1Cc1ccc(-c2ccccc2-c2nnn[nH]2)cc1` [Compound 113] stands 3.98 nM; under `CCCCc1nc2c(O)nnc(CCC)c2n1Cc1ccc(-c2ccccc2-c2nn[nH]n2)cc1` [Compound 114], 398 nM.
In general, inhibition refers to the share of the control response that was lost under treatment. Take `CCCCc1nc2cnncc2n1Cc1ccc(-c2ccccc2-c2nnn[nH]2)cc1` [Compound 115]: in experiment [3] (dose 3 mg/kg), the “Assay C Duration” value was over 240 min and the inhibition at 3 mg/kg came out at 40%.
In experiment [2], `CCCCc1nc2c(O)nncc2n1Cc1ccc(-c2ccccc2-c2nnn[nH]2)cc1` [Compound 116] had a Kb of 316 nM.
In the case of `CCCCc1nc2c(OC(C)=O)nnc(OC(C)=O)c2n1Cc1ccc(-c2ccccc2-c2nnn[nH]2)cc1` [Compound 125], in experiment [3] (dose 3 mg/kg), the “Assay C Duration” value was over 240 min and the inhibition at 3 mg/kg was 35%.
`CCCCc1nc(Cc2ccc(-c3ccccc3C(=O)O)cc2)nn1CCCC` [Compound 127] showed a Kb in experiment [2] of 11000 nM.
Still for that read-out and setting: for `CCCCc1nc(Cc2ccc(-c3ccccc3-c3nnn[nH]3)cc2)nn1CCCC` [Compound 129] the value was 5010 nM; for `CCCCc1cn(CCc2ccccc2)c(=O)n1Cc1ccc(-c2ccccc2-c2nnn[nH]2)cc1` [Compound 133], 2 nM.
Still for that read-out and setting: for `CCCCc1cn(CCc2cccs2)c(=O)n1Cc1ccc(-c2ccccc2-c2nnn[nH]2)cc1` [Compound 134] the value was 0.501 nM; for `CCCCc1cn(-c2ccccc2Cl)c(=O)n1Cc1ccc(-c2ccccc2-c2nnn[nH]2)cc1` [Compound 135], 3.16 nM.
Still for that read-out and setting: for `CCCCc1c(C)n(CCCC)c(=O)n1Cc1ccc(-c2ccccc2-c2nnn[nH]2)cc1` [Compound 137] the value was 5.01 nM; for `CCCc1cn(CCC)c(=O)n1Cc1ccc(-c2ccccc2-c2nnn[nH]2)cc1` [Compound 138], 6.31 nM; for `CCCCc1nc(Cl)c(Cl)n1Cc1ccc(-n2cccc2C(=O)O)cc1` [Compound 147], 2510 nM.
On to `CCCCc1nc(Cl)c(CO)n1Cc1ccc(-n2cccc2C(=O)O)cc1` [Compound 148], for which the Kb in experiment [2] was 1580 nM.
Take `CCCCc1cn(CC2CCCCC2)c(=O)n1Cc1ccc(-c2ccccc2-c2nnn[nH]2)nc1` [Compound 205]: the IC50 in experiment [1] was found to be 20 nM. Besides, in experiment [3] (dose 3 mg/kg), the “Assay C Duration” value was over 180 min and testing at 3 mg/kg gave an inhibition of 40%.
Take `CCCCc1cn(C2C3CC4CC(C3)CC2C4)c(=O)n1Cc1ccc(-c2ccccc2-c2nnn[nH]2)nc1` (stereo not drawn) [Compound 213]: in experiment [1], the IC50 turned out to be 51 nM.
For the molecule `CCCCc1cn([C@H]2[C@H](C)CCC[C@@H]2C)c(=O)n1Cc1ccc(-c2ccccc2-c2nnn[nH]2)nc1` [Compound 236], the “Assay B pA2 (NC = Non-Competitive antagonist)” value in experiment [2] is listed as “NC”.
The molecule `CCCCc1nc(CCC)nn1Cc1ccc(-c2ccccc2-c2nnn[nH]2)nc1` [Compound 246] returned an IC50 in experiment [1] of 72 nM.
`CCCCc1nc(CC(CC)CC)n(Cc2ccc(-c3ccccc3-c3nnn[nH]3)nc2)n1` [Compound 250] showed an IC50 in experiment [1] of 43 nM. In experiment [3] (dose 3 mg/kg), this molecule displayed an inhibition at 3 mg/kg of 0%.
In the case of `CCCCc1cn(-c2ccccc2CC)c(=O)n1Cc1ccc(-c2ccccc2-c2nnn[nH]2)cc1` [Compound 271], the “Assay B pA2 (NC = Non-Competitive antagonist)” value in experiment [2] is “NC”.
As to `CCCCc1cn(-c2ccccc2C(C)C)c(=O)n1Cc1ccc(-c2ccccc2-c2nnn[nH]2)cc1` [Compound 272], the “Assay B pA2 (NC = Non-Competitive antagonist)” value in experiment [2] is “NC”.
Consider `CCCCc1cn(-c2c(C)cccc2C)c(=O)n1Cc1ccc(-c2ccccc2-c2nnn[nH]2)cc1` [Compound 275], for which the Kb in experiment [2] was 0.851 nM.
Still for that read-out and setting: under `CCCCc1cn(-c2c(C(C)C)cccc2C(C)C)c(=O)n1Cc1ccc(-c2ccccc2-c2nnn[nH]2)cc1` [Compound 277] stands 288 nM.
For the molecule `CCCCc1nc(Cl)c(CC(=O)[O-])n1Cc1ccccc1[N+](=O)[O-].[Na+]` [sodium salt of 2-butyl-4-chloro-1-(2-nitrobenzyl)imidazole-5-acetic acid], the “angiotensin II antagonist activity” value in experiment [4] is “specific competitive angiotensin II antagonist activity”.
